Laboratory results taken from patent US12617798B2, “Imidazopyrazne derivatives” (Hoffmann-La Roche Inc., priority 2020, dated 2026).
Structures can show the parent of a compound that is named as a salt.

Key:
[1] = system: Acinetobacter baumannii ATCC17961; test: Antimicrobial susceptibility testing, 90% growth inhibitory concentration (IC90) determination; assay type: cell-based; details: Iso-Sensitest broth, OD 600 nm over 16 h, 35±2° C., read-out: ATCC 17961 IC90
Description: (§1) 90% Growth Inhibitory Concentration (IC90) Determination The in vitro antimicrobial activity of the compounds was determined according to the following procedure: The assay used a 10-points Iso-Sensitest broth medium to measure quantitatively the in vitro activity of the compounds against Acinetobacter baumannii ATCC17961 and Pseudomonas aeruginosa ATCC27853. Stock compounds in DMSO were serially twofold diluted (e.g. range from 50 to 0.097 μM final concentration) in 384 wells microtiter plates and inoculated with 49 μl the bacterial suspension in Iso-Sensitest medium to have a final cell concentration of ˜5×10^(5) CFU/ml in a final volume/well of 50 ul/well. Microtiter plates were incubated at 35±2° C. Bacterial cell growth was determined with the measurement of optical density at λ=600 nm each 20 minutes over a time course of 16 h. Growth inhibition was calculated during the logarithmic growth of the bacterial cells with determination of the concentration inhibiting 50% (IC50) and 90% (IC90) of the growth. Table 1 provides the 90% growth inhibitory concentrations (IC90) in micromoles per liter of the compounds of present invention obtained against the strain Acinetobacter baumannii ATCC17961.

[2] = system: Pseudomonas aeruginosa ATCC27853; test: as above; assay type: cell-based; details: Iso-Sensitest broth, OD 600 nm over 16 h, 35±2° C., read-out: ATCC 27853 IC90
Description: as §1, with “Table 2” for “Table 1”, “strain Pseudomonas aeruginosa ATCC27853.” for “strain Acinetobacter baumannii ATCC17961.”

`CCc1cc(Nc2nccn3c(-c4ccc(-c5c[nH]nc5C)c(F)c4F)cnc23)ccc1C(=O)NCC1CC[N+](CC(=O)O)(CC2CNC2)CC1` (stereo not shown) [Example A5, 2-[1-(azetidin-3-ylmethyl)-4-[[[4-[[3-[2,3-difluoro-4-(3-methyl-1H-pyrazol-4-yl)phenyl]imidazo[1,2-a]pyrazin-8-yl]amino]-2-ethyl-benzoyl]amino]methyl]piperidin-1-ium-1-yl]acetic acid; formic acid; formate] gave an IC90 [1] of 150 nM and an IC90 [2] of 240 nM.

`CCc1cc(Nc2nccn3c(-c4ccc(-c5c(C)n[nH]c5C)nc4F)cnc23)ccc1C(=O)NCC1CC[N+](C)(CC2CNC2)CC1` (stereo not shown) [Example B4, N-[[1-(azetidin-3-ylmethyl)-1-methyl-piperidin-1-ium-4-yl]methyl]-4-[[3-[6-(3,5-dimethyl-1H-pyrazol-4-yl)-2-fluoro-3-pyridyl]imidazo[1,2-a]pyrazin-8-yl]amino]-2-ethyl-benzamide; formic acid; formate] was tested, and the IC90 [1] was 430 nM and the IC90 [2] was 98 nM.

With `CCc1cc(Nc2nccn3c(-c4ccc(-c5c[nH]nc5C(F)(F)F)c(F)c4F)cnc23)ccc1C(=O)NCC1CC[N+](C)(CC2CNC2)CC1` (stereo not shown) [Example B6, N-[[1-(azetidin-3-ylmethyl)-1-methyl-piperidin-1-ium-4-yl]methyl]-4-[[3-[2,3-difluoro-4-[3-(trifluoromethyl)-1H-pyrazol-4-yl]phenyl]imidazo[1,2-a]pyrazin-8-yl]amino]-2-ethyl-benzamide; formic acid; formate] the IC90 [1] was 160 nM and the IC90 [2] was 250 nM.

`CCc1cc(Nc2nccn3c(-c4ccc(-c5c[nH]nc5C)c(F)c4F)cnc23)ccc1C(=O)NCC1CC[N+](C)(CC(=O)O)CC1` (stereo not shown) [Example A4, 2-[4-[[[4-[[3-[2,3-difluoro-4-(3-methyl-1H-pyrazol-4-yl)phenyl]imidazo[1,2-a]pyrazin-8-yl]amino]-2-ethyl-benzoyl]amino]methyl]-1-methyl-piperidin-1-ium-1-yl]acetic acid; formate] gave an IC90 [1] of 310 nM and an IC90 [2] of 1200 nM.

In the case of `CCc1cc(Nc2nccn3c(-c4ccc(-c5c[nH]nc5C)c(F)c4F)cnc23)ccc1C(=O)NCC1CC[N+](C)(CC2CNC2)CC1` (stereo not shown) [Example A2, N-[[1-(Azetidin-3-ylmethyl)-1-methyl-piperidin-1-ium-4-yl]methyl]-4-[[3-[2,3-difluoro-4-(3-methyl-1H-pyrazol-4-yl)phenyl]imidazo[1,2-a]pyrazin-8-yl]amino]-2-ethyl-benzamide; formic acid; formate], the IC90 [1] is reported as 50 nM and the IC90 [2] is reported as 98 nM.

In the case of `CCc1cc(Nc2nccn3c(-c4ccc(-c5c[nH]nc5C)cc4)cnc23)ccc1C(=O)NCC1CC[N+](C)(CC2CNC2)CC1` (stereo not shown) [Example B5, N-[[1-(azetidin-3-ylmethyl)-1-methyl-piperidin-1-ium-4-yl]methyl]-2-ethyl-4-[[3-[4-(3-methyl-1H-pyrazol-4-yl)phenyl]imidazo[1,2-a]pyrazin-8-yl]amino]benzamide; formic acid; formate], the IC90 [1] is reported as 100 nM and the IC90 [2] is reported as 98 nM.

`CCc1cc(Nc2nccn3c(-c4ccc(-c5c[nH]nc5C)c(F)c4F)cnc23)ccc1C(=O)NCC1CCN(CC2CNC2)CC1` [Example A1, N-[[1-(Azetidin-3-ylmethyl)-4-piperidyl]methyl]-4-[[3-[2,3-difluoro-4-(3-methyl-1H-pyrazol-4-yl)phenyl]imidazo[1,2-a]pyrazin-8-yl]amino]-2-ethyl-benzamide; formic acid] showed an IC90 [1] of 47 nM and an IC90 [2] of 160 nM.

In the case of `CCc1cc(Nc2nccn3c(-c4ccc(-c5cn(CCOC)nc5C)c(F)c4F)cnc23)ccc1C(=O)NCC1CC[N+](C)(C)CC1` [Example C1, 4-[[3-[2,3-Difluoro-4-[1-(2-methoxyethyl)-3-methyl-pyrazol-4-yl]phenyl]imidazo[1,2-a]pyrazin-8-yl]amino]-N-[(1,1-dimethylpiperidin-1-ium-4-yl)methyl]-2-ethyl-benzamide; formate], the IC90 [1] is reported as 270 nM and the IC90 [2] is reported as 1000 nM.

`CCc1cc(Nc2nccn3c(-c4ccc(-c5cn(CCOC)nc5C)c(F)c4F)cnc23)ccc1C(=O)NCC1CC[N+](C)(CC(N)=O)CC1` (stereo not shown) [Example C2, N-[[1-(2-amino-2-oxo-ethyl)-1-methyl - piperidin-1-ium-4-yl]methyl]-4-[[3-[2,3-difluoro-4-[1-(2-methoxyethyl)-3-methyl-pyrazol-4-yl]phenyl]imidazo[1,2-a]pyrazin-8-yl]amino]-2-ethyl-benzamide; formate] gave an IC90 [1] of 290 nM and an IC90 [2] of 1200 nM.

`CCc1cc(Nc2nccn3c(-c4ccc(-c5c[nH]nc5C(F)(F)F)c(F)c4F)cnc23)ccc1C(=O)NCC1CCN(CC2CNC2)CC1` [Example A12, N-[[1-(azetidin-3-ylmethyl)-4-piperidyl]methyl]-4-[[3-[2,3-difluoro-4-[3-(trifluoromethyl)-1H-pyrazol-4-yl]phenyl]imidazo[1,2-a]pyrazin-8-yl]amino]-2-ethyl-benzamide; formic acid] was tested, and the IC90 [1] was 280 nM and the IC90 [2] was 430 nM.

`CCc1cc(Nc2nccn3c(-c4ccc(-c5cn(CCOC)nc5C)c(F)c4F)cnc23)ccc1C(=O)NCC1CC[N+](C)(CC2CNC2)CC1` (stereo not shown) [Example C4, N-[[1-(azetidin-3-ylmethyl)-1-methyl-piperidin-1-ium-4-yl]methyl]-4-[[3-[2,3-difluoro-4-[1-(2-methoxyethyl)-3-methyl-pyrazol-4-yl]phenyl]imidazo[1,2-a]pyrazin-8-yl]amino]-2-ethyl-benzamide; formic acid; formate] showed an IC90 [1] of 460 nM and an IC90 [2] of 410 nM.

Work on `CCc1cc(Nc2nccn3c(-c4ccc(-c5c(C)nn(CCOC)c5C)c(F)c4F)cnc23)ccc1C(=O)NCC1CC[N+](C)(CC2CNC2)CC1` (stereo not shown) [Example C7, N-[[1-(azetidin-3-ylmethyl)-1-methyl-piperidin-1-ium-4-yl]methyl]-4-[[3-[2,3-difluoro-4-[1-(2-methoxyethyl)-3,5-dimethyl-pyrazol-4-yl]phenyl]imidazo[1,2-a]pyrazin-8-yl]amino]-2-ethyl-benzamide; formic acid; formate] yielded an IC90 [1] of 320 nM and an IC90 [2] of 390 nM.

Molecule `CCc1cc(Nc2nccn3c(-c4ccc(-c5cn(CCOC)nc5C)c(F)c4F)cnc23)ccc1C(=O)NCC1CC[N+](C)(CCO)CC1` (stereo not shown) [Example C3, 4-[[3-[2,3-difluoro-4-[1-(2-methoxyethyl)-3-methyl-pyrazol-4-yl]phenyl]imidazo[1,2-a]pyrazin-8-yl]amino]-2-ethyl-N-[[1-(2-hydroxyethyl)-1-methyl-piperidin-1-ium-4-yl]methyl]benzamide; formate] has an IC90 [1] of 430 nM and an IC90 [2] of 1600 nM.

`CCc1cc(Nc2nccn3c(-c4ccc(-c5c(C)nn(CCOC)c5C)c(F)c4F)cnc23)ccc1C(=O)NCC1CC[N+](C)(CC(N)=O)CC1` (stereo not shown) [Example C5, N-[[1-(2-amino-2-oxo-ethyl)-1-methyl-piperidin-1-ium-4-yl]methyl]-4-[[3-[2,3-difluoro-4-[1-(2-methoxyethyl)-3,5-dimethyl-pyrazol-4-yl]phenyl]imidazo[1,2-a]pyrazin-8-yl]amino]-2-ethyl-benzamide; formate] showed an IC90 [1] of 680 nM and an IC90 [2] of 1900 nM.

`CCc1cc(Nc2nccn3c(-c4ccc(-c5c[nH]nc5C)c(F)c4F)cnc23)ccc1C(=O)NCC1CCN(CC(=O)O)CC1` [Example A3, 2-[4-[[[4-[[3-[2,3-difluoro-4-(3-methyl-1H-pyrazol-4-yl)phenyl]imidazo[1,2-a]pyrazin-8-yl]amino]-2-ethyl-benzoyl]amino]methyl]-1-piperidyl]acetic acid] was tested, and the IC90 [1] was 340 nM and the IC90 [2] was 1800 nM.

`CCc1cc(Nc2nccn3c(-c4ccc(-c5c(C)nn(CCOC)c5C)c(F)c4F)cnc23)ccc1C(=O)NCC1CC[N+](C)(CCO)CC1` (stereo not shown) [Example C6, 4-[[3-[2,3-difluoro-4-[1-(2-methoxyethyl)-3,5-dimethyl-pyrazol-4-yl]phenyl]imidazo[1,2-a]pyrazin-8-yl]amino]-2-ethyl-N-[[1-(2-hydroxyethyl)-1-methyl-piperidin-1-ium-4-yl]methyl]benzamide; formate] gave an IC90 [1] of 440 nM and an IC90 [2] of 1200 nM.

`CCc1cc(Nc2nccn3c(-c4ccc(-c5c[nH]nc5C)nc4F)cnc23)ccc1C(=O)NCC1CC[N+](C)(CC2CNC2)CC1` (stereo not shown) [Example B1, N-[[1-(Azetidin-3-ylmethyl)-1-methyl-piperidin-1-ium-4-yl]methyl]-2-ethyl-4-[[3-[2-fluoro-6-(3-methyl-1H-pyrazol-4-yl)-3-pyridyl]imidazo[1,2-a]pyrazin-8-yl]amino]benzamide; formic acid; formate] was tested, and the IC90 [1] was 1100 nM and the IC90 [2] was 120 nM.
